Source: patent publication US20100197650A1, “COMPOSITIONS AND METHODS OF TREATMENT COMPRISING CEFTAROLINE” (FOREST LABORATORIES HOLDINGS LTD., priority 2008, published 2010)
Converted amounts (≈) assume the structure as drawn. Read-outs that look alike come from different tables or passages of the source.

What was measured:
[1] = tested on: Acinetobacter baumannii; experiment: MIC, broth microdilution (Example 1); type: cell-based
Outline: (§1)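 Frozen clinical or ATCC isolates are subcultured overnight on agar at 35 °C. Agents are serially diluted 2-fold in DMSO, then added to broth at 5% volume: HTM for Haemophilus, MH II for the rest, plus 2% lysed horse blood for pneumococci. Plates are incubated ~20 h at 35 °C and read visually.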

[2] = tested on: Escherichia coli; experiment: MIC, broth microdilution (Example 1); type: cell-based; settings: Escherichia coli, read-out: MIC
Outline: as §1

[3] = tested on: Haemophilus influenzae; experiment: MIC, broth microdilution (Example 1); type: cell-based
Outline: (§2)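 Media: Haemophilus Test Medium (H. influenzae); MH II broth + 2% lysed horse blood (S. pneumoniae); plain MH II broth (K. pneumoniae, P. aeruginosa). 2-fold serial dilutions in DMSO, 5% v/v drug in well. 35 °C, ~20 h. MIC read by eye at growth/no-growth.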

[4] = tested on: Pseudomonas aeruginosa; experiment: MIC, broth microdilution (Example 1); type: cell-based
Outline: as §2

[5] = tested on: Staphylococcus aureus; experiment: MIC, broth microdilution (Example 1); type: cell-based
Outline: as §1

[6] = tested on: Streptococcus pneumoniae; experiment: MIC, broth microdilution (Example 1); type: cell-based; settings: Streptococcus pneumoniae, read-out: MIC
Outline: as §2

[7] = tested on: Streptococcus pyogenes; experiment: MIC, broth microdilution (Example 1); type: cell-based; settings: Streptococcus pyogenes, read-out: MIC
Outline: as §1

[8] = tested on: ESBL-producing E. coli; experiment: Susceptibility testing MIC/MBC, broth microdilution (Example 2); type: cell-based, Escherichia coli; settings: for MBC / MIC: Escherichia coli
[9] = tested on: ESBL-producing Klebsiella pneumoniae; experiment: as above; type: cell-based; settings: for MBC / MIC: Klebsiella pneumoniae; for MBC: read-out: MBC; for MIC: read-out: MIC
[10] = K. pneumonia (10) clinical isolates

CCO/N=C(\C(=O)N[C@@H]1C(=O)N2C(C(=O)[O-])=C(Sc3nc(-c4cc[n+](C)cc4)cs3)CS[C@H]12)c1nsc(N)n1 [Ceftaroline]
MIC ([1]; A. baumannii 2602): 2 µg/mL | MIC ([1]; Acinetobacter baumannii, A. baumannii 2601, read-out: MIC): 2 µg/mL | MIC ([2]; E. coli 1587): 0.12 µg/mL | MIC ([2]; E. coli 2273 (ESBL)): 2 µg/mL | MIC ([3]; H. influenzae 1224): 0.12 µg/mL | MIC ([3]; H. influenzae 2797 (BLNAR)): 0.12 µg/mL | MIC ([3]; Haemophilus influenzae, H. influenzae 1224, read-out: MIC): 0.06 µg/mL | MIC ([3]; Haemophilus influenzae, H. influenzae 2797 (BLNAR), read-out: MIC): 0.06 µg/mL | MIC ([3]; Haemophilus influenzae, H. influenzae 2798 (BLNAR), read-out: MIC): 0.03 µg/mL | MIC ([3]; Haemophilus influenzae, H. influenzae 2799 (BLNAR), read-out: MIC): 0.03 µg/mL | MIC ([4]; P. aeruginosa 2555): 32 µg/mL | MIC ([4]; P. aeruginosa 2559): 16 µg/mL | MIC ([5]; S. aureus 0765 (MRSA)): 2 µg/mL | MIC ([5]; Staphylococcus aureus, MRSA, S. aureus 0765 (MRSA), read-out: MIC): 1 µg/mL | MIC ([5]; Staphylococcus aureus, MRSA, S. aureus 2053 (MRSA), read-out: MIC): 2 µg/mL | MIC ([5]; Staphylococcus aureus, MRSA, S. aureus 2202 (CA-MRSA), read-out: MIC): 1 µg/mL | MIC ([5]; Staphylococcus aureus, MRSA, S. aureus 2296 (CA-MRSA), read-out: MIC): 1 µg/mL | MIC ([5]; Staphylococcus aureus, MSSA, S. aureus 0753 (MSSA), read-out: MIC): 0.5 µg/mL | MIC ([5]; Staphylococcus aureus, MSSA, S. aureus 2063 (MSSA), read-out: MIC): 0.5 µg/mL | MIC ([6]; PRSP, S. pneumoniae 0876 (PRSP)): 0.12 µg/mL | MIC ([6]; PRSP, S. pneumoniae 0877 (PRSP)): 0.12 µg/mL | MIC ([6]; PRSP, S. pneumoniae 0880 (PRSP)): 0.12 µg/mL | MIC ([6]; PRSP, S. pneumoniae 0884 (PRSP)): 0.12 µg/mL | MIC ([6]; S. pneumoniae 0869 (PSSP)): 0.008 µg/mL | MIC ([7]; S. pyogenes 0717): 0.008 µg/mL | MIC ([7]; S. pyogenes 0722): 0.008 µg/mL | MBC range ([8]; E. coli (10) clinical isolates): 4 to 1024 µg/mL | MIC range ([8]; E. coli (10) clinical isolates): 2 to 512 µg/mL | MBC ([8]; E. coli isolate no. 5401, read-out: MBC): 8 µg/mL (≈ 13.2 µM) | MIC ([8]; E. coli isolate no. 5401, read-out: MIC): 4 µg/mL (≈ 6.61 µM) | MBC ([8]; E. coli isolate no. 5411): 128 µg/mL (≈ 212 µM) | MIC ([8]; E. coli isolate no. 5411): 64 µg/mL (≈ 106 µM) | MBC range [9, 10]: 32 to 1024 µg/mL | MIC range [9, 10]: 8 to 1024 µg/mL | MBC ([9]; K. pneumonia isolate no. 5427): 16 µg/mL (≈ 26.5 µM) | MIC ([9]; K. pneumonia isolate no. 5427): 4 µg/mL (≈ 6.61 µM) | MBC ([9]; K. pneumonia isolate no. 5436): 1020 µg/mL (≈ 1690 µM) | MIC ([9]; K. pneumonia isolate no. 5436): 1020 µg/mL (≈ 1690 µM)
